Article PMC12439480, “Dimeric CCK2R radiotheranostic tracers synergize with mTOR inhibition for enhanced tumor therapy” (Theranostics, 2025)
Where two headings read alike, the source gives them in different places. Numbered stars: 1 amine (or outer) side, 2 acyl side, 3 side chain; on linkers, the order of the positions; unused ones are H or OH. Square brackets hold non-standard residues; d marks the D form. Side chains are listed from the residue outwards. Peptide text beside a SMILES is read from it. * marks the point of attachment. DOTA = O=C(O)CN1CCN(CC(=O)O)CCN(CC(=O)*)CCN(CC(=O)O)CC1; d(γGlu) = O=C(O)[C@@H](CCC(=O)[*:2])N[*:1]; 1Nal = N[C@@H](Cc1cccc2ccccc12)C(=O)O; NMeNle = CCCC[C@H](NC)C(=O)O; PEG4 = NCCOCCOCCOCCOCCC(=O)O

Experiment: Ex vivo biodistribution of 177Lu-labeled compound
Set-up: species or system BALB/c nude mice
Details: mouse, in vivo; for tissue to tissue ratio at 24 h / tissue to tissue ratio at 48 h / tissue to tissue ratio at 72 h / tissue to tissue ratio at 96 h / tissue to tissue ratio at 1 h / tissue to tissue ratio at 4 h: female, BALB/c nude, iv, total radioactivity
Description: To evaluate the biodistribution of [^177Lu]Lu-DOTA-CCK2R-dimer, AR42J tumor-bearing mice received intravenous (i.v.) injections of 3.7 MBq (≈ 120 pmol) of [^177Lu]Lu-DOTA-CCK2R-dimer (dissolved in 200 μL of saline; n = 3/group), and Mice were sacrificed at 1, 4, 24, 48, 72, and 96 h post-injection. The tissues of interest were excised, weighed, and analyzed for radioactivity using a γ-counter.
All animal studies were approved by the Ethics Committee of Fudan University Shanghai Cancer Center (No. FUSCC-IACUC- S2023- 0003). Five-week-old female BALB/c nude mice were purchased from Shanghai SLAC Laboratory Animal
Company. To establish cell-derived xenograft (CDX) models, 1 × 10⁶ AR42J cells (100 μL) were subcutaneously inoculated into the right shoulder of each mouse. […]
Radioactivity levels were measured using a gamma counter, with decay correction applied based on the injection time. The percentage of injected dose per gram of tissue (%ID/g) was calculated for each time point. […]

[1] = 3.7 MBq, Tumor-to-Bladder ratio (T/B)
[2] = 3.7 MBq, Tumor-to-Blood ratio (T/B)
[3] = 3.7 MBq, Tumor-to-Bone ratio (T/B)
[4] = 3.7 MBq, Tumor-to-Brain ratio (T/B)
[5] = 3.7 MBq, Tumor-to-Heart ratio (T/B)
[6] = 3.7 MBq, Tumor-to-Liver ratio (T/B)
[7] = 3.7 MBq, Tumor-to-Muscle ratio (T/M)
[8] = 3.7 MBq, Tumor-to-Stomach ratio (T/B)
[9] = Tumor-to-Large intestine ratio (T/B)
[10] = Tumor-to-Small intestine ratio (T/B)

CCCC[C@@H](C(=O)N[C@@H](CC(=O)O)C(=O)N[C@@H](Cc1cccc2ccccc12)C(N)=O)N(C)C(=O)[C@H](Cc1c[nH]c2ccccc12)NC(=O)CCOCCOCCOCCOCCNC(=O)CC[C@@H](NC(=O)CC[C@H](NC(=O)CN1CCN(CC(=O)O)CCN(CC(=O)O)CCN(CC(=O)O)CC1)C(=O)N[C@H](CCC(=O)NCCOCCOCCOCCOCCC(=O)N[C@@H](Cc1c[nH]c2ccccc12)C(=O)N(C)[C@@H](CCCC)C(=O)N[C@@H](CC(=O)O)C(=O)N[C@@H](Cc1cccc2ccccc12)C(N)=O)C(=O)O)C(=O)O [[177Lu]Lu-DOTA-CCK2R-dimer, metal not drawn] ({DOTA}-E([d(γGlu)-PEG4-Trp-NMeNle-Asp-1Nal-NH2])[d(γGlu)][PEG4]W[NMeNle]D[1Nal]-NH2)
tissue to tissue ratio at 24 h [1]: 35.4 ± 6.48 | tissue to tissue ratio at 48 h [1]: 194 ± 91 | tissue to tissue ratio at 72 h [1]: 44.7 ± 13.1 | tissue to tissue ratio at 96 h [1]: 13.5 ± 4.12 | tissue to tissue ratio at 1 h [2]: 2.95 ± 1.5 | tissue to tissue ratio at 4 h [2]: 13.3 ± 5.68 | tissue to tissue ratio at 24 h [2]: 141 ± 51.3 | tissue to tissue ratio at 48 h [2]: 186 ± 14.3 | tissue to tissue ratio at 72 h [2]: 768 ± 140 | tissue to tissue ratio at 96 h [2]: 226 ± 40.9 | tissue to tissue ratio at 1 h [3]: 35.1 ± 13.6 | tissue to tissue ratio at 4 h [3]: 53.2 ± 32.6 | tissue to tissue ratio at 24 h [3]: 165 ± 45 | tissue to tissue ratio at 48 h [3]: 1070 ± 247 | tissue to tissue ratio at 72 h [3]: 117 ± 40.1 | tissue to tissue ratio at 96 h [3]: 46 ± 9.49 | tissue to tissue ratio at 1 h [4]: 141 ± 50 | tissue to tissue ratio at 4 h [4]: 470 ± 81.1 | tissue to tissue ratio at 24 h [4]: 6080 ± 100 | tissue to tissue ratio at 48 h [4]: 1710 ± 151 | tissue to tissue ratio at 72 h [4]: 746 ± 85.1 | tissue to tissue ratio at 96 h [4]: 189 ± 50.1 | tissue to tissue ratio at 1 h [5]: 15.3 ± 5.59 | tissue to tissue ratio at 96 h [5]: 105 ± 5.19 | tissue to tissue ratio at 1 h [6]: 5.19 ± 2.8 | tissue to tissue ratio at 4 h [6]: 4.37 ± 0.9 | tissue to tissue ratio at 24 h [6]: 10 ± 0.99 | tissue to tissue ratio at 48 h [6]: 7.78 ± 1.96 | tissue to tissue ratio at 1 h [7]: 53.3 ± 18.2 | tissue to tissue ratio at 4 h [7]: 246 ± 180 | tissue to tissue ratio at 24 h [7]: 417 ± 210 | tissue to tissue ratio at 48 h [7]: 531 ± 153 | tissue to tissue ratio at 72 h [7]: 348 ± 238 | tissue to tissue ratio at 96 h [7]: 90.8 ± 32.8 | tissue to tissue ratio at 1 h [8]: 4.83 ± 1.46 | tissue to tissue ratio at 96 h [8]: 13.4 ± 6.42 | tissue to tissue ratio at 1 h (3.7 MBq, 1 h p.i., read-out: Tumor-to-Kidney ratio (T/B)): 2.22 ± 1.01 | tissue to tissue ratio at 48 h (3.7 MBq, 48 h p.i., read-out: Tumor-to-Kidney ratio (T/B)): 4.16 ± 3.43 | tissue to tissue ratio at 1 h (Tumor-to-Bladder ratio (T/B)): 24.8 ± 11 | tissue to tissue ratio at 4 h (Tumor-to-Bladder ratio (T/B)): 40.4 ± 12.1 | tissue to tissue ratio at 4 h (Tumor-to-Heart ratio (T/B)): 29.6 ± 12.8 | tissue to tissue ratio at 24 h (Tumor-to-Heart ratio (T/B)): 134 ± 59.9 | tissue to tissue ratio at 48 h (Tumor-to-Heart ratio (T/B)): 406 ± 29.2 | tissue to tissue ratio at 72 h (Tumor-to-Heart ratio (T/B)): 80.5 ± 26.4 | tissue to tissue ratio at 1 h [9]: 17.1 ± 5.58 | tissue to tissue ratio at 4 h [9]: 24.4 ± 5.51 | tissue to tissue ratio at 24 h [9]: 90.7 ± 23.4 | tissue to tissue ratio at 48 h [9]: 73.2 ± 14.5 | tissue to tissue ratio at 72 h [9]: 98.9 ± 74.4 | tissue to tissue ratio at 96 h [9]: 26.3 ± 11 | tissue to tissue ratio at 72 h (Tumor-to-Liver ratio (T/B)): 5.53 ± 1.05 | tissue to tissue ratio at 96 h (Tumor-to-Liver ratio (T/B)): 2.7 ± 0.63 | tissue to tissue ratio at 1 h (Tumor-to-Lung ratio (T/B)): 7.93 ± 3.29 | tissue to tissue ratio at 4 h (Tumor-to-Lung ratio (T/B)): 15.9 ± 6.64 | tissue to tissue ratio at 24 h (Tumor-to-Lung ratio (T/B)): 331 ± 35 | tissue to tissue ratio at 48 h (Tumor-to-Lung ratio (T/B)): 900 ± 88 | tissue to tissue ratio at 72 h (Tumor-to-Lung ratio (T/B)): 299 ± 66.5 | tissue to tissue ratio at 96 h (Tumor-to-Lung ratio (T/B)): 61.2 ± 12.8 | tissue to tissue ratio at 1 h [10]: 14 ± 5.39 | tissue to tissue ratio at 4 h [10]: 28.8 ± 10.3 | tissue to tissue ratio at 24 h [10]: 229 ± 10 | tissue to tissue ratio at 48 h [10]: 112 ± 61 | tissue to tissue ratio at 72 h [10]: 187 ± 27.7 | tissue to tissue ratio at 96 h [10]: 39.6 ± 12.2 | tissue to tissue ratio at 1 h (Tumor-to-Spleen ratio (T/B)): 8.21 ± 4.18 | tissue to tissue ratio at 4 h (Tumor-to-Spleen ratio (T/B)): 6.59 ± 0.75 | tissue to tissue ratio at 24 h (Tumor-to-Spleen ratio (T/B)): 55 ± 21.1 | tissue to tissue ratio at 48 h (Tumor-to-Spleen ratio (T/B)): 124 ± 50 | tissue to tissue ratio at 72 h (Tumor-to-Spleen ratio (T/B)): 51.8 ± 19.5 | tissue to tissue ratio at 96 h (Tumor-to-Spleen ratio (T/B)): 9.63 ± 3.59 | tissue to tissue ratio at 4 h (Tumor-to-Stomach ratio (T/B)): 5.05 ± 1.72 | tissue to tissue ratio at 24 h (Tumor-to-Stomach ratio (T/B)): 5.94 ± 1.92 | tissue to tissue ratio at 48 h (Tumor-to-Stomach ratio (T/B)): 4.15 ± 0.31 | tissue to tissue ratio at 72 h (Tumor-to-Stomach ratio (T/B)): 8.41 ± 1.18 | tissue to tissue ratio at 4 h (4 h p.i., read-out: Tumor-to-Kidney ratio (T/B)): 2.19 ± 0.23 | tissue to tissue ratio at 24 h (24 h p.i., read-out: Tumor-to-Kidney ratio (T/B)): 1.84 ± 0.56 | tissue to tissue ratio at 72 h (72 h p.i., read-out: Tumor-to-Kidney ratio (T/B)): 1.65 ± 0.05 | tissue to tissue ratio at 96 h (96 h p.i., read-out: Tumor-to-Kidney ratio (T/B)): 1.37 ± 0.84 | tissue uptake at 1 h (Bladder uptake): 0.84 ± 0.31 %ID/g | tissue uptake at 4 h (Bladder uptake): 0.4 ± 0.13 %ID/g | tissue uptake at 24 h (Bladder uptake): 0.18 ± 0.04 %ID/g
